Test results as given in the supplement of paper PMC13380429.
± gives the standard deviation of the averaged measurements.

How the values were obtained:
Conditions in all cases: 72 h
[1] = system: Caco-2; experiment: cell viability relative to DMSO; higher = less toxic
[2] = system: Calu-3; experiment: as above
[3] = system: HepG2; experiment: as above
[4] = system: U2OS; experiment: as above
[5] = system: Vero E6; experiment: as above
[6] = system: Caco-2; experiment: relative viability EC50 (midpoint between 100% and the lowest measured viability); higher = less toxic
[7] = system: Calu-3; experiment: as above
[8] = system: HepG2; experiment: as above
[9] = system: U2OS; experiment: as above
[10] = system: Vero E6; experiment: as above
[11] = system: Caco-2; experiment: drug sensitivity score (DSS) for viability; higher = more toxic; extreme values may be limits of the assay
[12] = system: Calu-3; experiment: as above
[13] = system: HepG2; experiment: as above
[14] = system: U2OS; experiment: as above
[15] = system: Vero E6; experiment: as above

| Compound | cell viability ([1]; 1 nM) | cell viability ([1]; 10 nM) | cell viability ([1]; 100 nM) | cell viability ([1]; 1000 nM) | cell viability ([1]; 10000 nM) | cell viability ([2]; 1 nM) | cell viability ([2]; 10 nM) | cell viability ([2]; 100 nM) | cell viability ([2]; 1000 nM) | cell viability ([2]; 10000 nM) | cell viability ([3]; 1 nM) | cell viability ([3]; 10 nM) | cell viability ([3]; 100 nM) | cell viability ([3]; 1000 nM) | cell viability ([3]; 10000 nM) | cell viability ([4]; 1 nM) | cell viability ([4]; 10 nM) | cell viability ([4]; 100 nM) | cell viability ([4]; 1000 nM) | cell viability ([4]; 10000 nM) | cell viability ([5]; 1 nM) | cell viability ([5]; 10 nM) | cell viability ([5]; 100 nM) | cell viability ([5]; 1000 nM) | cell viability ([5]; 10000 nM) | relative viability EC50 [6] | relative viability EC50 [7] | relative viability EC50 [8] | relative viability EC50 [9] | relative viability EC50 [10] | drug sensitivity score [11] | drug sensitivity score [12] | drug sensitivity score [13] | drug sensitivity score [14] | drug sensitivity score [15] |
| --- | --- | --- | --- | --- | --- | --- | --- | --- | --- | --- | --- | --- | --- | --- | --- | --- | --- | --- | --- | --- | --- | --- | --- | --- | --- | --- | --- | --- | --- | --- | --- | --- | --- | --- | --- |
| O=C(O)Cc1cccc(OCCCN(Cc2cccc(C(F)(F)F)c2Cl)CC(c2ccccc2)c2ccccc2)c1 [GW-3965] | 92.8% | 107% | 97.8% | 98.1% | 77.7% | 93.6% | 101% | 108% | 114% | 98.8% | 90.9% | 99.3% | 116% | 97.5% | 92.5% | 100% | 99.2% | 98.2% | 101% | 95.6% | 112% | 98.8% | 100% | 101% | 104% | > 10 µM | > 10 µM | > 10 µM | > 10 µM | > 10 µM | 1 | 0 | 0 | 0 | 0 |
| On1ncc(C2CCNCC2)c1-c1cccc(-c2ccccc2)c1 [PHP-501] | 100% | 97.3% | 93% | 102% | 94.6% | 106% | 102% | 91.1% | 97.1% | 107% | 108% | 99.6% | 105% | 97.4% | 100% | 95.5% | 102% | 98.1% | 109% | 106% | 97.7% | 92.1% | 92% | 89.9% | 111% | > 10 µM | > 10 µM | > 10 µM | > 10 µM | > 10 µM | 0 | 0 | 0 | 0 | 0 |
| C[C@]12CCC(=O)C[C@@H]1CC[C@@H]1[C@@H]2CC[C@]2(C)C=CC[C@@H]12 [androstenone] | 86.6% | 104% | 93.9% | 97.2% | 102% | 90.7% | 91.1% | 99.8% | 105% | 80.2% | 100% | 99.4% | 92.4% | 89.8% | 100% | 94.5% | 99.3% | 92.6% | 99% | 101% | 96.8% | 97.1% | 97.4% | 93.4% | 102% | > 10 µM | > 10 µM | > 10 µM | > 10 µM | > 10 µM | 0 | 0.1 | 0 | 0 | 0 |
| COc1ccc2cccc(CCNC(C)=O)c2c1 [agomelatine] | 102% | 104% | 104% | 96.8% | 98% | 105% | 106% | 103% | 88.4% | 106% | 97.7% | 104% | 97.8% | 101% | 103% | 105% | 99% | 105% | 98.8% | 99.8% | 98% | 103% | 92.5% | 106% | 96.5% | > 10 µM | > 10 µM | > 10 µM | > 10 µM | > 10 µM | 0 | 0 | 0 | 0 | 0 |
| Nc1ccn([C@@H]2CS[C@H](CO)O2)c(=O)n1 [lamivudine] | 83% | 100% | 89.3% | 88.7% | 84.5% | 107% | 89.6% | 89.4% | 96.9% | 97.6% | 93.9% | 93.4% | 98.8% | 99.1% | 106% | 96.9% | 102% | 97.7% | 102% | 97.1% | 102% | 105% | 97.4% | 85.8% | 99.2% | > 10 µM | > 10 µM | > 10 µM | > 10 µM | > 10 µM | 0.7 | 0 | 0 | 0 | 0 |
| Nc1ccccc1S(N)(=O)=O [2-aminobenzenesulfonamide] | 95.3% | 99.4% | 99.4% | 95.5% | 101% | 90.9% | 108% | 101% | 104% | 80.5% | 99% | 99.5% | 87.1% | 94.1% | 102% | 103% | 105% | 96.8% | 98.4% | 90.5% | 99.5% | 98.2% | 101% | 98.9% | 93.7% | > 10 µM | > 10 µM | > 10 µM | > 10 µM | > 10 µM | 0 | 0.4 | 0 | 0 | 0 |
| Cc1c(C(=O)NN2CCOCC2)nn(-c2ccc(Cl)cc2Cl)c1-c1ccc(I)cc1 [AM-281] | 96.8% | 100% | 96.2% | 96.2% | 107% | 102% | 113% | 104% | 94.5% | 88.1% | 105% | 95.7% | 102% | 101% | 103% | 96.9% | 101% | 95.5% | 100% | 100% | 98.3% | 96.6% | 98.4% | 94.5% | 106% | > 10 µM | > 10 µM | > 10 µM | > 10 µM | > 10 µM | 0 | 0.2 | 0 | 0 | 0 |
| c1ccc(-c2n[nH]cc2-c2ccnc3ccccc23)nc1 | 96.4% | 93.1% | 92.7% | 103% | 97.3% | 95.5% | 105% | 110% | 105% | 105% | 110% | 96.4% | 107% | 102% | 116% | 94.1% | 97.9% | 95.9% | 98.9% | 91.4% | 94.1% | 99.4% | 99.4% | 89.3% | 104% | > 10 µM | > 10 µM | > 10 µM | > 10 µM | > 10 µM | 0 | 0 | 0 | 0 | 0 |
| Oc1ccc2c3c1O[C@H]1c4[nH]c5ccccc5c4C[C@@]4(O)[C@@H](C2)N(CC2CC2)CC[C@]314 [naltrindole] | 102% | 94.6% | 98.1% | 96.5% | 106% | 98.5% | 98.5% | 103% | 101% | 83.9% | 103% | 97.7% | 101% | 106% | 91.7% | 98.7% | 100% | 102% | 111% | 97.9% | 95.9% | 102% | 105% | 95.4% | 92.1% | > 10 µM | > 10 µM | > 10 µM | > 10 µM | > 10 µM | 0 | 0.3 | 0 | 0 | 0 |
| C=C1/C(=C\C=C2/CCC[C@]3(C)[C@@H]([C@H](C)CCCC(C)(C)O)CC[C@@H]23)C[C@@H](O)C[C@@H]1O [calcitriol] | 101% | 104% | 105% | 101% | 92.5% | 100% | 106% | 96.7% | 101% | 96.8% | 116% | 112% | 102% | 92.6% | 96.2% | 100% | 104% | 95.9% | 103% | 92.8% | 106% | 102% | 104% | 98.1% | 97.8% | > 10 µM | > 10 µM | > 10 µM | > 10 µM | > 10 µM | 0 | 0 | 0 | 0 | 0 |
| N[C@@H](C(=O)O)c1cc(O)cc(O)c1 [dihydroxyphenylglycine] | 102 ± 3.8% | 94.9 ± 1.1% | 92.4 ± 7.5% | 90.8 ± 4.5% | 103 ± 5% | 104 ± 5.4% | 90.5 ± 9.7% | 102 ± 1.1% | 102 ± 6.4% | 105 ± 9.4% | 95.8 ± 10% | 92 ± 9.4% | 87.9 ± 4.8% | 98.2 ± 2.4% | 102 ± 8.4% | 102.7 ± 0.85% | 97.2 ± 2.8% | 103% | 98.8 ± 0.42% | 101 ± 2% | 99.4 ± 5.7% | 97.5 ± 7% | 98.5 ± 1.9% | 99.6 ± 5.4% | 95.8 ± 4.7% | > 10 µM | > 10 µM | > 10 µM | > 10 µM | > 10 µM | 0 | 0 | 0 | 0 | 0 |
| O=C(COc1cccc2c(=O)[nH]ccc12)c1ccccc1 [UPF-1069] | 95.6% | 92.5% | 94.8% | 87% | 84.5% | 98.2% | 101% | 92.9% | 96.8% | 90.2% | 97% | 95.6% | 98.5% | 89% | 88% | 102% | 101% | 95.1% | 103% | 93.9% | 94.2% | 108% | 107% | 93.8% | 94.6% | > 10 µM | > 10 µM | > 10 µM | > 10 µM | > 10 µM | 0.8 | 0 | 0.1 | 0 | 0 |
| CC#CCC(C)[C@H](O)/C=C/[C@@H]1[C@H]2C/C(=C/CCCC(=O)O)C[C@H]2C[C@H]1O (stereo not given in full) [iloprost] | 92.2% | 105% | 100% | 95.2% | 105% | 99.3% | 96.8% | 85% | 91.5% | 103% | 97.8% | 90.6% | 106% | 97.1% | 98.2% | 96% | 101% | 93.3% | 98.4% | 94% | 96.2% | 101% | 97% | 98.8% | 99.3% | > 10 µM | > 10 µM | > 10 µM | > 10 µM | > 10 µM | 0 | 0 | 0 | 0 | 0 |
| CCOc1ccc2ccccc2c1C(=O)N[C@@H]1C(=O)N2[C@@H]1SC(C)(C)[C@@H]2C(=O)O [nafcillin] | 99% | 96.4% | 99.9% | 101% | 105% | 91.1% | 107% | 101% | 99.5% | 102% | 99.5% | 91.5% | 96.8% | 92.4% | 99.5% | 98.2% | 99.6% | 94.5% | 100% | 106% | 103% | 90.3% | 94.2% | 104% | 95.7% | > 10 µM | > 10 µM | > 10 µM | > 10 µM | > 10 µM | 0 | 0 | 0 | 0 | 0 |
